Test results reported in paper PMC5589637, “New perspectives of cobalt tris(bipyridine) system: anti-cancer effect and its collateral sensitivity towards multidrug-resistant (MDR) cancers” (Oncotarget, 2017).

Experiments:
[1] = system: A549 taxol-sensitive cancer cells; test: MTT cytotoxicity, taxol-sensitive A549; assay type: cell-based; conditions: 72 h
Description: (§1) All cells were obtained from the American Type Culture Collection (Rockville, MD, USA) unless otherwise specified. Immortalized wild-type and Atg7-deficient mouse embryonic fibroblasts (MEFs) were kindly provided by Professor Masaaki Komatsu (Juntendo University, School of Medicine, Japan). Taxol-resistant types of MCF-7, HCT-8, A549 cancers cells and cisplatin-resistant SGC7901 cancer cells were purchased from KeyGEN BioTECH, China. Cisplatin-sensitive or –resistant A2780, OV2008 and C13 cancer cells were kindly provided by Prof. Benjamin Tsang (Department of Obstetrics and Gynecology and Department of Cellular and Molecular Medicine, University of Ottawa, Canada). HCT116 p53^+/+ and p53^−/− isogenic human colon cancer cells were kindly provided by Professor Bert Vogelstein (Ludwig Center at Johns Hopkins, Howard Hughes Medical Institute, USA). All media were supplemented with 10% fetal bovine serum and antibiotics penicillin (50 U/ml) and streptomycin (50 μg/ml; Invitrogen, Paisley, Scotland, UK). All cell cultures were incubated at 37°C in a 5% humidified CO2 incubator.
(§2) All tested compounds were dissolved in DMSO at a final concentration of 50 mmol/L and stored at −20°C before use. Cytotoxicity was assessed by using the 3-(4,5-dimethylthiazol-2-yl)-2, 5-diphenyltetrazolium bromide (MTT) (5.0 mg/ml) assay as previously described. Briefly, 4×10^3 cells per well were seeded in 96-well plates before drug treatments. After overnight culture, the cells were then exposed to different concentrations of selected compounds ([…]) for 72 hours. Cells without drug treatment were used as control. Subsequently, MTT (10 μL) solution was added to each well and incubated at 37°C for 4 hours followed by the addition of 100 μL solubilization buffer (10%SDS in 0.01 mol/L HCl) and overnight incubation. A570 nm was then determined in each well on the next day. The percentage of cell viability was calculated using the following formula: Cell viability (%) = Atreated/Acontrol × 100. Data were obtained from three independent experiments.

[2] = system: MCF-7 taxol-sensitive cancer cells; test: MTT cytotoxicity, taxol-sensitive MCF-7; assay type: cell-based; conditions: 72 h
Description: as §1, §2

[3] = system: SGC-7901 cisplatin-sensitive cancer cells; test: MTT cytotoxicity, cisplatin-sensitive SGC-7901; assay type: cell-based; conditions: 72 h
Description: as §1, §2

[4] = system: normal human LO2 hepatocytes; test: MTT cytotoxicity assay, LO2; assay type: cell-based; conditions: 72 h
Protocol: as §2

[5] = system: H1299 (lung cancer) cells; test: MTT cytotoxicity assay, H1299; assay type: cell-based, human; conditions: 72 h
Protocol: as §2

[6] = system: SGC-7901 cisplatin-resistant cancer cells; test: MTT cytotoxicity, cisplatin-resistant SGC-7901; assay type: cell-based; conditions: for IC50: SGC-7901 cisplatin-resistant, MTT, 72 h; for Resistant Factor, SGC-7901: cisplatin-resistant over cisplatin-sensitive IC50, SGC-7901
Description: as §1, §2

[7] = system: A2780 cisplatin-sensitive cancer cells; test: MTT cytotoxicity, cisplatin-sensitive A2780; assay type: cell-based; conditions: 72 h
Description: as §1, §2

[8] = system: A549 (EGFR wild-type lung cancer) cells; test: MTT cytotoxicity assay, A549; assay type: cell-based; conditions: 72 h
Protocol: as §2

[9] = system: MCF-7 (breast cancer) cells; test: MTT cytotoxicity assay, MCF-7; assay type: cell-based; conditions: MCF-7, MTT, 72 h
Protocol: as §2

[10] = system: HepG2 (liver cancer) cells; test: MTT cytotoxicity assay, HepG2; assay type: cell-based; conditions: 72 h
Protocol: as §2

[11] = system: HCT116 p53^-/- colon cancer cells; test: MTT cytotoxicity, HCT116 p53-/-; assay type: cell-based, human; conditions: for IC50: HCT116 p53-/-, MTT, 72 h; for Resistant Factor, HCT116 p53-/- vs p53+/+: IC50 p53-/- over IC50 p53+/+
Description: as §1, §2

[12] = system: OV2008 (cisplatin-sensitive) cells; test: MTT cytotoxicity, OV2008 (cisplatin-sensitive); assay type: cell-based; conditions: 72 h, read-out: IC50 value, cisplatin-sensitive cancer, OV2008
Description: as §1, §2

[13] = system: Hep3B (liver cancer) cells; test: MTT cytotoxicity assay, Hep 3B; assay type: cell-based; conditions: 72 h
Protocol: as §2

[14] = system: HCT116 p53^+/+ colon cancer cells; test: MTT cytotoxicity, HCT116 p53+/+; assay type: cell-based, human; conditions: 72 h
Description: as §1, §2

[15] = system: A2780 cisplatin-resistant cancer cells; test: MTT cytotoxicity, cisplatin-resistant A2780; assay type: cell-based; conditions: for IC50: A2780 cisplatin-resistant, MTT, 72 h; for Resistant Factor, A2780: cisplatin-resistant over cisplatin-sensitive IC50, A2780
Description: as §1, §2

[16] = system: HCT-8 taxol-resistant cancer cells; test: MTT cytotoxicity, taxol-resistant HCT-8; assay type: cell-based; conditions: for IC50: HCT-8 taxol-resistant, MTT, 72 h; for Resistant Factor, HCT-8: IC50 of taxol-resistant cells over IC50 of taxol-sensitive cells
Description: as §1, §2

[17] = system: MCF-7 taxol-resistant cancer cells; test: MTT cytotoxicity, taxol-resistant MCF-7; assay type: cell-based; conditions: for Resistant Factor, MCF-7: IC50 of taxol-resistant cells over IC50 of taxol-sensitive cells; for IC50: MCF-7 taxol-resistant, MTT, 72 h
Description: as §1, §2

[18] = system: A549 taxol-resistant cancer cells; test: MTT cytotoxicity, taxol-resistant A549; assay type: cell-based; conditions: for IC50: A549 taxol-resistant, MTT, 72 h; for Resistant Factor, A549: IC50 of taxol-resistant cells over IC50 of taxol-sensitive cells
Description: as §1, §2

[19] = system: H1975 (EGFR mutant lung cancer) cells; test: MTT cytotoxicity assay, H1975; assay type: cell-based; conditions: 72 h
Protocol: as §2

[20] = system: C13 (cisplatin-resistant) cells; test: MTT cytotoxicity, C13 (cisplatin-resistant); assay type: cell-based; conditions: for IC50: C13 (cisplatin-resistant), MTT, 72 h, read-out: IC50 value, cisplatin-resistant cancer, C13; for Resistant Factor, OV2008/C13 pair: C13 (resistant) IC50 over OV2008 (sensitive) IC50
Description: as §1, §2

[21] = system: LLC-1 (mouse lung cancer) cells; test: MTT cytotoxicity assay, LLC-1; assay type: cell-based; conditions: LLC-1, MTT, 72 h
Protocol: as §2

[22] = system: HeLa (cervical cancer) cells; test: MTT cytotoxicity assay, HeLa; assay type: cell-based; conditions: 72 h
Protocol: as §2

[23] = system: HCT-8 taxol-sensitive cancer cells; test: MTT cytotoxicity, taxol-sensitive HCT-8; assay type: cell-based; conditions: 72 h
Description: as §1, §2

[24] = system: panel of cancer cells; test: MTT cytotoxicity assay, summary over the panel of cancer cells; assay type: cell-based; conditions: range over the cancer cell lines of Table 1, MTT, 72 h; read-out: mean IC50 values ranged (over the cancer cell lines)
Protocol: as §2

| Compound | IC50 [1] [µM] | IC50 [2] [µM] | IC50 [3] [µM] | IC50 [4] [µM] | IC50 [5] [µM] | IC50 [6] [µM] | Resistant Factor, SGC-7901 [6] | IC50 [7] [µM] | IC50 [8] [µM] | IC50 [9] [µM] | IC50 [10] [µM] | IC50 [11] [µM] | Resistant Factor, HCT116 p53-/- vs p53+/+ [11] | IC50 [12] [µM] | IC50 [13] [µM] | IC50 [14] [µM] | IC50 [15] [µM] | Resistant Factor, A2780 [15] | IC50 [16] [µM] | Resistant Factor, HCT-8 [16] | also measured |
| --- | --- | --- | --- | --- | --- | --- | --- | --- | --- | --- | --- | --- | --- | --- | --- | --- | --- | --- | --- | --- | --- |
| Cc1ccnc(-c2cc(C)ccn2)c1.Cc1ccnc(-c2cc(C)ccn2)c1.Cc1ccnc(-c2cc(C)ccn2)c1.F[P-](F)(F)(F)(F)F.F[P-](F)(F)(F)(F)F.[Co+2] [complex 1, [Co^II(4,4’-Me2-bpy)3](PF6)2] | 9.59 | 4.62 | 11.7 | 13.5 | 3.43 | 17.6 | 1.50 | 11.9 | 9.45 | 15.4 | 7.39 | 8.89 | 0.52 | 7.06 | 4.06 | 17.1 | 11.2 | 0.94 | 1.16 | 0.37 | Resistant Factor, MCF-7 [17]: 0.54; IC50 [17]: 2.51 µM; IC50 [18]: 2.37 µM; Resistant Factor, A549 [18]: 0.25; IC50 [19]: 15.4 µM; IC50 [20]: 15.6 µM; Resistant Factor, OV2008/C13 pair [20]: 2.21; IC50 [21]: 2.79 µM; IC50 [22]: 10.1 µM; IC50 [23]: 3.13 µM |
| COc1ccnc(-c2cc(OC)ccn2)c1.COc1ccnc(-c2cc(OC)ccn2)c1.COc1ccnc(-c2cc(OC)ccn2)c1.F[P-](F)(F)(F)(F)F.F[P-](F)(F)(F)(F)F.F[P-](F)(F)(F)(F)F.[Co+3] [complex 5, [Co^III(4,4’-(OMe)2-bpy)3](PF6)3] | 15 | 9.45 | 21.6 | 20.6 | 8.71 | 20.7 | 0.96 | 24 | 18.6 | 10.8 | 15.4 | 41.3 | 0.53 | 14 | 5.33 | 77.8 | 27 | 1.13 | 1.04 | 0.24 | Resistant Factor, MCF-7 [17]: 0.66; IC50 [17]: 6.28 µM; IC50 [18]: 2.85 µM; Resistant Factor, A549 [18]: 0.19; IC50 [19]: 9.31 µM; IC50 [20]: 20.3 µM; Resistant Factor, OV2008/C13 pair [20]: 1.45; IC50 [21]: 8.71 µM; IC50 [22]: 12.8 µM; IC50 [23]: 4.3 µM |
| CCCCCCCCCc1ccnc(-c2cc(CCCCCCCCC)ccn2)c1.CCCCCCCCCc1ccnc(-c2cc(CCCCCCCCC)ccn2)c1.CCCCCCCCCc1ccnc(-c2cc(CCCCCCCCC)ccn2)c1.F[P-](F)(F)(F)(F)F.F[P-](F)(F)(F)(F)F.F[P-](F)(F)(F)(F)F.[Co+3] [complex 6, [Co^III(4,4’-(C9H19)2-bpy)3](PF6)3] | 54.3 | 28.5 | 36.3 | 40.2 | 26.7 | 35.9 | 0.99 | 30.2 | 82.8 | 37.4 | 26 | 34.1 | 0.93 | 49.4 | 54.1 | 36.5 | 29.1 | 0.96 | 41.1 | 0.73 | Resistant Factor, MCF-7 [17]: 0.39; IC50 [17]: 11.1 µM; IC50 [18]: 2.6 µM; Resistant Factor, A549 [18]: 0.05; IC50 [19]: 24.2 µM; IC50 [20]: 92.6 µM; Resistant Factor, OV2008/C13 pair [20]: 1.87; IC50 [21]: 10.4 µM; IC50 [22]: 21.3 µM; IC50 [24]: 10.4 to 82.8 µM; IC50 [23]: 56.4 µM |
